Assay results reported in patent US10206394B2, “Herbicidal compounds” (Syngenta Participations AG, priority 2014, dated 2019).
Where two headings read alike, the source gives them in different places.

How the values were obtained:
Assay in all cases: Glasshouse assay for herbicidal activity (pre- and post-emergence), percentage phytotoxicity
Assay type in all cases: in vivo
[1] = tested on: Alopecurus myosuroides (ALOMY); conditions: Alopecurus myosuroides
Method in brief: (§1)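 Pot-grown, standard soil. PRE: spray 1 d post-sowing; POST: ~12 d. Glasshouse 24/18 °C (warm spp.) / 20/16 °C (cool spp.), 16 h light, 65% RH, watered 2×/day. Visual % damage, 20 DAA PRE, 15 DAA POST.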

[2] = tested on: Avena fatua (AVEFA); conditions: Avena fatua
Method in brief: as §1

[3] = tested on: Echinochloa crus-galli (ECHCG); conditions: Echinochloa crus-galli
Method in brief: as §1

[4] = tested on: Lolium perenne (LOLPE); conditions: Lolium perenne
Method in brief: as §1

[5] = post-emergence, 360 h, Rate 250 g/ha, post-emergence, visual assessment 15 DAA, 100%=total damage, 0%=no damage, read-out: Post-emergence herbicidal activity (percentage phytotoxicity) ALOMY POST
[6] = pre-emergence, 480 h, Rate 250 g/ha, pre-emergence, visual assessment 20 DAA, 100%=total damage, 0%=no damage, read-out: Pre-emergence herbicidal activity (percentage phytotoxicity) ALOMY PRE
[7] = post-emergence, 360 h, Rate 250 g/ha, post-emergence, visual assessment 15 DAA, 100%=total damage, 0%=no damage, read-out: Post-emergence herbicidal activity (percentage phytotoxicity) AVEFA POST
[8] = pre-emergence, 480 h, Rate 250 g/ha, pre-emergence, visual assessment 20 DAA, 100%=total damage, 0%=no damage, read-out: Pre-emergence herbicidal activity (percentage phytotoxicity) AVEFA PRE
[9] = post-emergence, 360 h, Rate 250 g/ha, post-emergence, visual assessment 15 DAA, 100%=total damage, 0%=no damage, read-out: Post-emergence herbicidal activity (percentage phytotoxicity) ECHCG POST
[10] = pre-emergence, 480 h, Rate 250 g/ha, pre-emergence, visual assessment 20 DAA, 100%=total damage, 0%=no damage, read-out: Pre-emergence herbicidal activity (percentage phytotoxicity) ECHCG PRE
[11] = post-emergence, 360 h, Rate 250 g/ha, post-emergence, visual assessment 15 DAA, 100%=total damage, 0%=no damage, read-out: Post-emergence herbicidal activity (percentage phytotoxicity) LOLPE POST
[12] = pre-emergence, 480 h, Rate 250 g/ha, pre-emergence, visual assessment 20 DAA, 100%=total damage, 0%=no damage, read-out: Pre-emergence herbicidal activity (percentage phytotoxicity) LOLPE PRE
[13] = post-emergence, 360 h, POST-emergence, rate 250 g/ha, visual score 15 DAA (100%=total damage, 0%=no damage), read-out: Post-emergence herbicidal activity (percentage phytotoxicity) ALOMY POST
[14] = pre-emergence, 480 h, PRE-emergence, rate 250 g/ha, visual score 20 DAA (100%=total damage, 0%=no damage), read-out: Pre-emergence herbicidal activity (percentage phytotoxicity) ALOMY PRE
[15] = post-emergence, 360 h, POST-emergence, rate 250 g/ha, visual score 15 DAA (100%=total damage, 0%=no damage), read-out: Post-emergence herbicidal activity (percentage phytotoxicity) AVEFA POST
[16] = pre-emergence, 480 h, PRE-emergence, rate 250 g/ha, visual score 20 DAA (100%=total damage, 0%=no damage), read-out: Pre-emergence herbicidal activity (percentage phytotoxicity) AVEFA PRE
[17] = post-emergence, 360 h, POST-emergence, rate 250 g/ha, visual score 15 DAA (100%=total damage, 0%=no damage), read-out: Post-emergence herbicidal activity (percentage phytotoxicity) ECHCG POST
[18] = pre-emergence, 480 h, PRE-emergence, rate 250 g/ha, visual score 20 DAA (100%=total damage, 0%=no damage), read-out: Pre-emergence herbicidal activity (percentage phytotoxicity) ECHCG PRE
[19] = post-emergence, 360 h, POST-emergence, rate 250 g/ha, visual score 15 DAA (100%=total damage, 0%=no damage), read-out: Post-emergence herbicidal activity (percentage phytotoxicity) LOLPE POST
[20] = pre-emergence, 480 h, PRE-emergence, rate 250 g/ha, visual score 20 DAA (100%=total damage, 0%=no damage), read-out: Pre-emergence herbicidal activity (percentage phytotoxicity) LOLPE PRE
[21] = post-emergence, 360 h, 250 g/ha, post-emergence, 15 DAA, visual assessment (100%=total damage, 0%=no damage), read-out: Post-emergence herbicidal activity (percentage phytotoxicity) ALOMY POST
[22] = pre-emergence, 480 h, 250 g/ha, pre-emergence, 20 DAA, visual assessment (100%=total damage, 0%=no damage), read-out: Pre-emergence herbicidal activity (percentage phytotoxicity) ALOMY PRE
[23] = post-emergence, 360 h, 250 g/ha, post-emergence, 15 DAA, visual assessment (100%=total damage, 0%=no damage), read-out: Post-emergence herbicidal activity (percentage phytotoxicity) AVEFA POST
[24] = pre-emergence, 480 h, 250 g/ha, pre-emergence, 20 DAA, visual assessment (100%=total damage, 0%=no damage), read-out: Pre-emergence herbicidal activity (percentage phytotoxicity) AVEFA PRE
[25] = post-emergence, 360 h, 250 g/ha, post-emergence, 15 DAA, visual assessment (100%=total damage, 0%=no damage), read-out: Post-emergence herbicidal activity (percentage phytotoxicity) ECHCG POST
[26] = pre-emergence, 480 h, 250 g/ha, pre-emergence, 20 DAA, visual assessment (100%=total damage, 0%=no damage), read-out: Pre-emergence herbicidal activity (percentage phytotoxicity) ECHCG PRE
[27] = post-emergence, 360 h, 250 g/ha, post-emergence, 15 DAA, visual assessment (100%=total damage, 0%=no damage), read-out: Post-emergence herbicidal activity (percentage phytotoxicity) LOLPE POST
[28] = pre-emergence, 480 h, 250 g/ha, pre-emergence, 20 DAA, visual assessment (100%=total damage, 0%=no damage), read-out: Pre-emergence herbicidal activity (percentage phytotoxicity) LOLPE PRE

Compound | pest or weed control at 250 g/ha [1, 5] [%] | pest or weed control at 250 g/ha [1, 6] [%] | pest or weed control at 250 g/ha [2, 7] [%] | pest or weed control at 250 g/ha [2, 8] [%] | pest or weed control at 250 g/ha [3, 9] [%] | pest or weed control at 250 g/ha [3, 10] [%] | pest or weed control at 250 g/ha [4, 11] [%] | pest or weed control at 250 g/ha [4, 12] [%] | pest or weed control at 250 g/ha [1, 13] [%] | pest or weed control at 250 g/ha [1, 14] [%] | pest or weed control at 250 g/ha [2, 15] [%] | pest or weed control at 250 g/ha [2, 16] [%] | pest or weed control at 250 g/ha [3, 17] [%] | pest or weed control at 250 g/ha [3, 18] [%] | pest or weed control at 250 g/ha [4, 19] [%] | pest or weed control at 250 g/ha [4, 20] [%] | also measured
COc1ccc(CNC(=O)CC2CC(=O)C(c3c(C)cc(-c4ccc(Cl)cn4)cc3C)C2=O)cc1 (stereo not drawn) [Compound B380] | 70 | 70 | 90 | 80 | 100 | 90 | 90 | 80 |  |  |  |  |  |  |  |  | 
CCc1cc(C)cc(C)c1C1C(=O)CC(CC(=O)N(C)CC)C1=O (stereo not drawn) [Compound B258] |  |  |  |  |  |  |  |  | 100 | 100 | 100 | 90 | 100 | 100 | 100 | 100 | 
CCNC(=O)CC1CC(=O)C(c2c(C)cc(-c3ncc(Cl)cn3)cc2C)C1=O (stereo not drawn) [Compound B305] |  |  |  |  |  |  |  |  | 100 | 100 | 100 | 100 | 100 | 100 | 100 | 100 | 
Cc1cc(C)c(C2C(=O)CC(CC(N)=O)C2=O)c(C)c1 (stereo not drawn) [Compound B8] |  |  |  |  |  |  |  |  |  |  |  |  |  |  |  |  | pest or weed control at 250 g/ha [1, 21]: 80%; pest or weed control at 250 g/ha [1, 22]: 80%; pest or weed control at 250 g/ha [2, 23]: 100%; pest or weed control at 250 g/ha [2, 24]: 90%; pest or weed control at 250 g/ha [3, 25]: 100%; pest or weed control at 250 g/ha [3, 26]: 90%; pest or weed control at 250 g/ha [4, 27]: 90%; pest or weed control at 250 g/ha [4, 28]: 100%
Cc1cc(C)c(C2=C(OC(=O)C(C)(C)C)CC(CC(N)=O)C2=O)c(C)c1 (stereo not drawn) [Compound P11] | 80 | 70 | 90 | 30 | 90 | 90 | 90 | 80 |  |  |  |  |  |  |  |  | 
C#CC(C)(C)NC(=O)CC1CC(=O)C(c2c(C)cc(-c3ccc(Br)cn3)cc2C)C1=O (stereo not drawn) [Compound B297] |  |  |  |  |  |  |  |  | 100 | 90 | 100 | 90 | 100 | 100 | 100 | 90 | 
Cc1cc(-c2ccc(F)cn2)cc(C)c1C1C(=O)CC(CC(=O)NCc2cccs2)C1=O (stereo not drawn) [Compound B397] | 90 | 70 | 90 | 80 | 100 | 100 | 90 | 70 |  |  |  |  |  |  |  |  | 
COCCNC(=O)CC1CC(=O)C(c2c(C)cc(-c3ncc(Cl)cc3F)cc2C)C1=O (stereo not drawn) [Compound A47] |  |  |  |  |  |  |  |  |  |  |  |  |  |  |  |  | pest or weed control at 250 g/ha ([1]; post-emergence, 360 h, Rate 250 g/ha, post-emergence, assessed visually 15 DAA, 100%=total damage, 0%=no damage, read-out: Post-emergence herbicidal activity (percentage phytotoxicity) ALOMY POST): 100%; pest or weed control at 250 g/ha ([1]; pre-emergence, 480 h, Rate 250 g/ha, pre-emergence, assessed visually 20 DAA, 100%=total damage, 0%=no damage, read-out: Pre-emergence herbicidal activity (percentage phytotoxicity) ALOMY PRE): 100%; pest or weed control at 250 g/ha ([2]; post-emergence, 360 h, Rate 250 g/ha, post-emergence, assessed visually 15 DAA, 100%=total damage, 0%=no damage, read-out: Post-emergence herbicidal activity (percentage phytotoxicity) AVEFA POST): 100%; pest or weed control at 250 g/ha ([2]; pre-emergence, 480 h, Rate 250 g/ha, pre-emergence, assessed visually 20 DAA, 100%=total damage, 0%=no damage, read-out: Pre-emergence herbicidal activity (percentage phytotoxicity) AVEFA PRE): 100%; pest or weed control at 250 g/ha ([3]; post-emergence, 360 h, Rate 250 g/ha, post-emergence, assessed visually 15 DAA, 100%=total damage, 0%=no damage, read-out: Post-emergence herbicidal activity (percentage phytotoxicity) ECHCG POST): 100%; pest or weed control at 250 g/ha ([3]; pre-emergence, 480 h, Rate 250 g/ha, pre-emergence, assessed visually 20 DAA, 100%=total damage, 0%=no damage, read-out: Pre-emergence herbicidal activity (percentage phytotoxicity) ECHCG PRE): 100%; pest or weed control at 250 g/ha ([4]; post-emergence, 360 h, Rate 250 g/ha, post-emergence, assessed visually 15 DAA, 100%=total damage, 0%=no damage, read-out: Post-emergence herbicidal activity (percentage phytotoxicity) LOLPE POST): 100%; pest or weed control at 250 g/ha ([4]; pre-emergence, 480 h, Rate 250 g/ha, pre-emergence, assessed visually 20 DAA, 100%=total damage, 0%=no damage, read-out: Pre-emergence herbicidal activity (percentage phytotoxicity) LOLPE PRE): 100%
COCC(C)(C)NC(=O)CC1CC(=O)C(c2c(C)cc(C)cc2C)C1=O (stereo not drawn) [Compound B180] |  |  |  |  |  |  |  |  | 90 | 90 | 90 | 60 | 90 | 90 | 80 | 90 | 
CCC(C)NC(=O)CC1CC(=O)C(c2c(C)cc(-n3cc(Cl)cn3)cc2C)C1=O (stereo not drawn) [Compound B315] |  |  |  |  |  |  |  |  | 90 | 80 | 100 | 80 | 100 | 100 | 80 | 70 | 
Cc1cc(OCC(F)(F)F)cc(C)c1C1C(=O)CC(CC(=O)NC(C)(C)C)C1=O (stereo not drawn) [Compound B139] |  |  |  |  |  |  |  |  |  |  |  |  |  |  |  |  | pest or weed control at 250 g/ha [1, 21]: 90%; pest or weed control at 250 g/ha [1, 22]: 60%; pest or weed control at 250 g/ha [2, 23]: 90%; pest or weed control at 250 g/ha [2, 24]: 50%; pest or weed control at 250 g/ha [3, 25]: 100%; pest or weed control at 250 g/ha [3, 26]: 100%; pest or weed control at 250 g/ha [4, 27]: 80%; pest or weed control at 250 g/ha [4, 28]: 90%
C#CCN(C)C(=O)CC1CC(=O)C(c2c(C)cc(-c3ncc(F)cn3)cc2C)C1=O (stereo not drawn) [Compound B334] | 100 | 100 | 100 | 100 | 100 | 100 | 90 | 100 |  |  |  |  |  |  |  |  | 
